The target in this test is Voltage-dependent T-type calcium channel subunit alpha-1G (Homo sapiens, UniProt O43497). The experiment in a line: In Vitro Cav3.1 Single Point and IC50 (VDB) Data. The procedure:
The compound plate was created at 2× concentrated in the extracellular solution. The compound was diluted to 1:2 when added to the recording well. The amount of DMSO in the extracellular solution was held constant at the level used for the highest tested concentration. For the voltage clamp experiments on Cav3.1, data were sampled at 10 KHz. After establishment of the seal and the passage in the whole cell configuration, the cells were held at −120 mV. Cav3.1 current was evoked using a 100 ms step to −20 mV (to measure resting state block), followed by a 1600 ms step to −65 mV and a second 100 ms step to −20 mV (to measure voltage dependent block). The voltage protocol was applied every 15 seconds in the absence and in the presence of the compounds under investigation. […] Current amplitude (pA) was measured in the peak 1 and 2. The average of last 3 sweeps of each liquid period (vehicle, compound under investigation, full block) was calculated. Nickel-sensitive current was used to calculate the % of inhibition in the presence of the compound under investigation.
Sequence of Voltage-dependent T-type calcium channel subunit alpha-1G (O43497 whole entry): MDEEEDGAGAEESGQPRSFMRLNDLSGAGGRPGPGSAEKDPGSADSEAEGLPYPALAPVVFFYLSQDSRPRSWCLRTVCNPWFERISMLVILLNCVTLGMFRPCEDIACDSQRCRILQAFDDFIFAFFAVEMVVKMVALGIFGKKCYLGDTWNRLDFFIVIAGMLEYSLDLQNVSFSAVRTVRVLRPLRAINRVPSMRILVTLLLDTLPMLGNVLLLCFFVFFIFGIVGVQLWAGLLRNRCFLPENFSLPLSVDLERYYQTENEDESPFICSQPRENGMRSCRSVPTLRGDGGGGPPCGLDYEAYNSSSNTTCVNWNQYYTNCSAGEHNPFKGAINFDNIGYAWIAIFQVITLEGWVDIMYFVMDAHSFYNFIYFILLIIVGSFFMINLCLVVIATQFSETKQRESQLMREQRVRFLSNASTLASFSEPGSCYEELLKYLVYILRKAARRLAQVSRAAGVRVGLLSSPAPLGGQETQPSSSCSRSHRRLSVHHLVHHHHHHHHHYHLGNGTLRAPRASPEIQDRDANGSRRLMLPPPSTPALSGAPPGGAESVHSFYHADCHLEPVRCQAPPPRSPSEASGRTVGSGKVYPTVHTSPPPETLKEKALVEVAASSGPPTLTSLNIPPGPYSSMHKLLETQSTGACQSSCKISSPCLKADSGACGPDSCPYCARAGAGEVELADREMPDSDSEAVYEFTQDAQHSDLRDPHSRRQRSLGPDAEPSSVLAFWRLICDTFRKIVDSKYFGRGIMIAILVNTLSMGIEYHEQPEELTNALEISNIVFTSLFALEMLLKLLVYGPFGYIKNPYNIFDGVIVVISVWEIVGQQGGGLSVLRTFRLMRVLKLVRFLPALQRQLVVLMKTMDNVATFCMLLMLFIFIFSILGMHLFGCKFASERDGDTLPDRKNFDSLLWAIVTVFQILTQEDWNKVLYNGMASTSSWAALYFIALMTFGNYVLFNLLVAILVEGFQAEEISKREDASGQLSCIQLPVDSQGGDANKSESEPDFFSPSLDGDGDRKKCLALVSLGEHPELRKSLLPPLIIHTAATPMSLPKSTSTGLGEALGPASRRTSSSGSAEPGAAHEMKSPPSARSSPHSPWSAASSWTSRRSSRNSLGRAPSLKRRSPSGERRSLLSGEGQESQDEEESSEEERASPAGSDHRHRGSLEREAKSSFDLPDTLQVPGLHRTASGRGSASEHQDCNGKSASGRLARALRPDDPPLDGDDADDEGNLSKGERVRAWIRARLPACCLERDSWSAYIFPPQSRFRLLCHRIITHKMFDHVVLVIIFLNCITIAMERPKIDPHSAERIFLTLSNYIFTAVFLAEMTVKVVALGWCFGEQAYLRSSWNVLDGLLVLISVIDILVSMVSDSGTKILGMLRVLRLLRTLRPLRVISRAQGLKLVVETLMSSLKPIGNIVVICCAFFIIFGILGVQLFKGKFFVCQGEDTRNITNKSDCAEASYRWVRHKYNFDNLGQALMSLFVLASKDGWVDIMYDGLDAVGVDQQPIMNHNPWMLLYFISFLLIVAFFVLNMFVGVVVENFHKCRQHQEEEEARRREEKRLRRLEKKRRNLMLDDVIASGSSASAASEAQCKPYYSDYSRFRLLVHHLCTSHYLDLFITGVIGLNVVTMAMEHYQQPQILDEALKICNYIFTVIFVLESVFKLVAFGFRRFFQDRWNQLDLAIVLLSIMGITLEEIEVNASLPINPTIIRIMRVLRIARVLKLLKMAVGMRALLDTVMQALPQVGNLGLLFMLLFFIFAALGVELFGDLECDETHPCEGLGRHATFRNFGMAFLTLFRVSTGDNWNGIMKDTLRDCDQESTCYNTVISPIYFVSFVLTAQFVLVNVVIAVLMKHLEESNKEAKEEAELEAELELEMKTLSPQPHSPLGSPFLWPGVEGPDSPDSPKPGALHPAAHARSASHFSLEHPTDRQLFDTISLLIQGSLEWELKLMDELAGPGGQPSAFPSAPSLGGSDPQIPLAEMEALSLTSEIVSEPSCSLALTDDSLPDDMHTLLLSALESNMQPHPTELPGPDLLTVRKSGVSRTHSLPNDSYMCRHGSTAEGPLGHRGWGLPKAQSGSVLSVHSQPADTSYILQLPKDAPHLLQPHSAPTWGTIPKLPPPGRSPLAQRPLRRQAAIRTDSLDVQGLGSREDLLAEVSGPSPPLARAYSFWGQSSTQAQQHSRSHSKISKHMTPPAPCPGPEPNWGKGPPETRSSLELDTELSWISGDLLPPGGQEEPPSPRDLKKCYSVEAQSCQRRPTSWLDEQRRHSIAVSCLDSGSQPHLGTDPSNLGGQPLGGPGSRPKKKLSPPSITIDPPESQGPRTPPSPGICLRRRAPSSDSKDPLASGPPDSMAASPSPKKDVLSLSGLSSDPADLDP
Consider `COc1cc(F)cc(NC(=O)C2CCC3(CC2)CN(CC(=O)NC(C)(C)C)C3)c1` [US20250214932, Example 46], for which the concentration for half-maximal inhibition (IC50) stood at 218 nM. On to `Cc1cc(F)cc(NC(=O)C2CCC3(CC2)CN(CC(=O)NC(C)(C)C)C3)c1` [US20250214932, Example 48], for which the IC50 turned out to be 196 nM. For the molecule `O=C(Nc1cc(F)cc(C(F)F)c1)C1CCC2(CC1)CN(CCNC(=O)C1(C(F)(F)F)CCC1)C2` [US20250214932, Example 52], the IC50 was determined as 261 nM. Next, `O=C(Nc1cc(F)cc(Cl)c1)C1CCC2(CC1)CN(CC(O)C1CCCCC1)C2` (centres undefined) [US20250214932, Example 68]: 170 nM; `O=C(CN1CC2(CCC(C(=O)Nc3cc(F)cc(C(F)F)c3)CC2)C1)NC1(C(F)(F)F)CC1` [US20250214932, Example 79]: below 78.2 nM. Next, `O=C(CN1CC2(CCC(C(=O)Nc3cc(F)cc(C(F)F)c3)CC2)C1)NC1(C(F)(F)F)CCC1` [US20250214932, Example 85]: 163 nM. As for `O=C(Nc1cc(F)cc(C(F)F)c1)C1CCC2(CC1)CN(CC(F)(F)C1CCCC1)C2` [US20250214932, Example 100], the half-inhibitory concentration (IC50) turned out to be 407 nM. Consider `COc1cc(Cl)cc(NC(=O)C2CCC3(CC2)CN(CC2(C#N)CC2)C3)c1` [US20250214932, Example 129], for which the IC50 turned out to be 1360 nM. Next, `O=C(NC12CC3CC(CC(C3)C1)C2)C1CCC2(CC1)CN(CC1(O)CCC(F)(F)CC1)C2` [US20250214932, Example 153]: 188 nM.

The values above are taken from BindingDB's records for patent US20250214932 (Praxis Precision Medicines, 2025).
